According to publication PMC1281266, “Impact of Polychlorinated Biphenyls Contamination on Estrogenic Activity in Human Male Serum” (Environmental Health Perspectives, 2005):
Entries after “also recorded” stand apart in the source; their conditions may differ.

Assays:
MCF-7 cells [1] = test system: MCF-7 cells; design: method as in Arcaro et al. 1999; settings: ref Arcaro et al. 1999; cited from earlier work
rat uterus [2] = test system: rat uterus; design: method as in Arcaro et al. 1999; settings: ref Arcaro et al. 1999; cited from earlier work
estrogen receptor (ER) [3] = target: T1, estrogen receptor (ER) (Homo sapiens, UniProt P03372); assay: ER-CALUX bioassay, estrogenic (ER-mediated) activity: induction of luciferase in T47D.Luc cells; type: cell-based; settings: for ER-mediated activity (induction of ER-dependent luciferase activity), in words: individual congeners, micromolar concentrations, Figure 2A; for ER-activated activity IEF (induction equivalency factor): ratio between EC50 of E2 and the PCB concentration inducing the same level of luciferase activity
T1 construct: using the human breast carcinoma T47D.Luc cell line, stably transfected with pEREtataLuc construct; host or cells: T47D.Luc (human breast carcinoma, stably transfected with the pEREtataLuc reporter)

T47D.Luc cells = assay: Neutral red uptake cytotoxicity assay, 24-hr exposure; type: cell-based, human; settings: lowest concentration causing a significant decrease of cell viability; 24-hr exposure Neutral Red uptake
Protocol: (§1) We determined estrogenic activities of 17 prevalent PCB congeners using the ER-CALUX bioassay (BioDetection Systems) using the human breast carcinoma T47D.Luc cell line, stably transfected with pEREtataLuc construct ([Legler et al. 1999]; [Machala et al. 2004]). ER-mediated activity was also determined in the cells treated with either total serum hexane/diethyl ether extracts or with a fraction of POPs obtained by a consequent sulfuric acid/silica fractionation. […] We determined cytotoxicity of extracts or individual PCBs by a neutral red uptake assay after a 24-hr exposure.

BG1LucE2 cells = test system: BG1LucE2 cells; design: method as in Rogers and Denison 2000; settings: 10 μM concentrations; ref Rogers and Denison 2000; cited from earlier work
rat uterus [4] = test system: rat uterus; design: method as in Li et al. 1994; settings: at very high concentrations; ref Li et al. 1994; cited from earlier work
MCF-7 cells [5] = test system: MCF-7 cells; design: method as in Bonenfeld-Jorgensen et al. 2001; settings: ref Bonenfeld-Jorgensen et al. 2001; cited from earlier work
estrogen receptor (ER) [6] = target: T1, estrogen receptor (ER); assay: ER-CALUX bioassay, antiestrogenicity: decrease in response to E2 in co-treated T47D.Luc cells; type: cell-based; settings: for Effect on E2-induced luciferase activity (antiestrogenicity), in words: 3 pM E2, T47D.Luc cells, Figure 3; for Effect of co-treatment on ER activation by E2, in words: co-treatment with 3 pM E2, Figure 2B
Protocol: as §1

AhR = target: T2, AhR (Rattus norvegicus, UniProt P41738); assay: DR-CALUX luciferase reporter gene assay, dioxin-like activity; type: cell-based; settings: data not shown
T2 construct: a luciferase reporter gene assay (DR-CALUX; BioDetection Systems, Amsterdam, the Netherlands) as described previously; rat hepatoma H4IIE.Luc by own knowledge of the DR-CALUX assay
T2 sequence (P41738 10-853): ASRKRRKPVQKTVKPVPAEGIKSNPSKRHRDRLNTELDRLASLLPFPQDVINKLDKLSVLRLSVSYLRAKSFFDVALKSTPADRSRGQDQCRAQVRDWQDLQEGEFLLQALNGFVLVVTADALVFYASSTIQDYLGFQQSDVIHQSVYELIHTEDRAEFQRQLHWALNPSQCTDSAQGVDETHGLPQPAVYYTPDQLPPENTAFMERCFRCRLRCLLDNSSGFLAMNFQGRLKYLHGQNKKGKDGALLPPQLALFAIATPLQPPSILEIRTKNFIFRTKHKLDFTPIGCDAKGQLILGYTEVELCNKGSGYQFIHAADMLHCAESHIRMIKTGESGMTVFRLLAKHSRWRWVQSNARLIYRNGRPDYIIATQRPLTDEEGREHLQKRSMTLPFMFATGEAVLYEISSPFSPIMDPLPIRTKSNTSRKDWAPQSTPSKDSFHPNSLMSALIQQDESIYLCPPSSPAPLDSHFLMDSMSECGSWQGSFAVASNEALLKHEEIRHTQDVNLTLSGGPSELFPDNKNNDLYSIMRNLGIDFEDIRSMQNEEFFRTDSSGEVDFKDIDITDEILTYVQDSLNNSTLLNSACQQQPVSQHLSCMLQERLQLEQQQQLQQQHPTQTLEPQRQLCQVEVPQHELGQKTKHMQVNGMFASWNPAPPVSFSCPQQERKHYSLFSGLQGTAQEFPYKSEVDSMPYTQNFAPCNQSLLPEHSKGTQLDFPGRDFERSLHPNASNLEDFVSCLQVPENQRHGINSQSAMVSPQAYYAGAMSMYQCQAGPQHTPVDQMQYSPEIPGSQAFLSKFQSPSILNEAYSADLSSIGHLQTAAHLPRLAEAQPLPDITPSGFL
Protocol: We determined the levels of cytochrome P450 (CYP) 1A1 and CYP1B1 mRNA in human peripheral lymphocytes by RNA extraction and a quantitative reverse-transcriptase-polymerase chain reaction (RT-PCR) method using TaqMan technology ([Canton et al. 2003]; [van Duursen et al. 2005]). The in vitro potencies of POPs present in serum to activate AhR were measured in sulfuric acid/silica-treated extracts by a luciferase reporter gene assay (DR-CALUX; BioDetection Systems, Amsterdam, the Netherlands) as described previously ([Murk et al. 1996]).

Structure (SMILES) | ER-mediated activity (induction of ER-dependent luciferase activity), in words (estrogen receptor (ER) [3]) | Cytotoxicity LOEC (T47D.Luc cells) | Effect on E2-induced luciferase activity (antiestrogenicity), in words (estrogen receptor (ER) [6]) | further results
Clc1cccc(Cl)c1-c1c(Cl)cccc1Cl [PCB 54, 2,2′,6,6′-Tetrachlorobiphenyl] |  |  |  | Estrogenicity in the MCF-7 cell focus assay (MCF-7 cells [1]): estrogenic; Estrogenicity in the rat uterotrophic assay (rat uterus [2]): estrogenic
Clc1ccc(-c2ccc(Cl)c(Cl)c2)c(Cl)c1 [PCB 66, 2,3′,4,4′-Tetrachlorobiphenyl] | significant ER-mediated activity; also recorded: induced the ER-mediated activity | > 40 µM |  | EC50 (estrogen receptor (ER) [3]): 24.3 µM; ER-mediated (estrogenic) activity in BG1LucE2 cells (BG1LucE2 cells): estrogenic
Clc1cc(Cl)c(-c2cc(Cl)c(Cl)cc2Cl)cc1Cl [PCB 153, 2,2′,4,4′,5,5′-Hexachlorobiphenyl] |  | 20 µM |  | Estrogenicity in the acute 2-day immature rat uterine weight assay (rat uterus [4]): estrogenic; Antiestrogenic effects in reporter gene and cell proliferation MCF-7 assays (MCF-7 cells [5]): Antiestrogenic effects
Clc1ccc(-c2cc(Cl)c(Cl)cc2Cl)c(Cl)c1 [PCB 99, 2,2′,4,4′,5-Pentachlorobiphenyl] | only partial ER agonists; also recorded: induced the ER-mediated activity | > 40 µM |  | ER-activated activity IEC (induction equivalency concentration) (estrogen receptor (ER) [3]): WI (key: NI: no significant induction/inhibition; WI: weak induction/inhibition (< 50% of estradiol maximum induction); ER-activated activity IEF (induction equivalency factor) (estrogen receptor (ER) [3]): WI (weak induction/inhibition (< 50% of estradiol maximum induction)
Clc1cc(-c2cc(Cl)c(Cl)c(Cl)c2Cl)c(Cl)c(Cl)c1Cl [PCB 194, 2,2′,3,3′,4,4′,5,5′-Octachlorobiphenyl] | did not induce | 25 µM | significantly decreased | IC50 (estrogen receptor (ER) [6]): 14.1 µM
Clc1ccc(-c2cc(Cl)c(Cl)cc2Cl)cc1 [PCB 74, 2,4,4′,5-Tetrachlorobiphenyl] | significant ER-mediated activity; also recorded: induced the ER-mediated activity | > 40 µM |  | EC50 (estrogen receptor (ER) [3]): 17 µM
Clc1cc(Cl)c(-c2ccc(Cl)c(Cl)c2Cl)cc1Cl [PCB 138, 2,2′,3,4,4′,5′-Hexachlorobiphenyl] | did not induce | 20 µM | significantly decreased | IC50 (estrogen receptor (ER) [6]): 10.1 µM; Antiestrogenic effects in reporter gene and cell proliferation MCF-7 assays (MCF-7 cells [5]): Antiestrogenic effects
Clc1ccc(-c2cc(Cl)c(Cl)c(Cl)c2)cc1Cl [PCB 126, 3,3′,4,4′,5-Pentachlorobiphenyl] |  | > 40 µM | not elicited | 
Clc1ccc(Cl)c(-c2c(Cl)ccc(Cl)c2Cl)c1 [PCB 95, 2,2′,3,5′,6-pentachlorobiphenyl] |  |  |  | ER-mediated (estrogenic) activity in BG1LucE2 cells (BG1LucE2 cells): estrogenic
Clc1ccc(-c2ccc(Cl)c(Cl)c2Cl)cc1Cl [PCB 105, 2,3,3′,4,4′-Pentachlorobiphenyl] | only partial ER agonists; also recorded: induced the ER-mediated activity | > 40 µM |  | ER-activated activity IEC (induction equivalency concentration) (estrogen receptor (ER) [3]): WI (key: NI: no significant induction/inhibition; WI: weak induction/inhibition (< 50% of estradiol maximum induction); ER-activated activity IEF (induction equivalency factor) (estrogen receptor (ER) [3]): WI (weak induction/inhibition (< 50% of estradiol maximum induction)
Clc1ccc(-c2cc(Cl)c(Cl)cc2Cl)cc1Cl [PCB 118, 2,3′,4,4′,5-Pentachlorobiphenyl] |  | > 20 µM |  | 
Clc1cc(Cl)c(-c2cc(Cl)c(Cl)c(Cl)c2Cl)cc1Cl [PCB 180, 2,2′,3,4,4′,5,5′-Heptachlorobiphenyl] | did not induce | 20 µM | significantly decreased | IC50 (estrogen receptor (ER) [6]): 9.32 µM; Antiestrogenic effects in reporter gene and cell proliferation MCF-7 assays (MCF-7 cells [5]): Antiestrogenic effects
Clc1ccc(-c2ccc(Cl)cc2Cl)cc1 [PCB 28, 2,4,4′-Trichlorobiphenyl] | significant ER-mediated activity; also recorded: induced the ER-mediated activity | > 20 µM |  | EC50 (estrogen receptor (ER) [3]): 8.23 µM; Effect of co-treatment on ER activation by E2, in words (estrogen receptor (ER) [6]): potentiated
Clc1cc(Cl)c(-c2c(Cl)c(Cl)c(Cl)c(Cl)c2Cl)cc1Cl [PCB 203, 2,2′,3,4,4′,5,5′,6-Octachlorobiphenyl] | did not induce | 20 µM | significantly decreased | IC50 (estrogen receptor (ER) [6]): 3.2 µM
Clc1cc(Cl)c(-c2c(Cl)c(Cl)cc(Cl)c2Cl)c(Cl)c1Cl [PCB 199, 2,2′,3,3′,4′,5,6,6′-Octachlorobiphenyl] | did not induce | 20 µM | significantly decreased | IC50 (estrogen receptor (ER) [6]): 2.85 µM
Clc1ccc(-c2ccc(Cl)c(Cl)c2)cc1Cl [PCB 77, 3,3′,4,4′-tetrachlorobiphenyl] |  |  |  | ER-mediated (estrogenic) activity in BG1LucE2 cells (BG1LucE2 cells): no ER-mediated activity
ClC(Cl)=C(c1ccc(Cl)cc1)c1ccc(Cl)cc1 [p,p′-DDE] |  |  |  | Estrogenic activity, in words (estrogen receptor (ER) [3]; data not shown): weak estrogenic; Dioxin-like activity, in words (AhR): no dioxin-like activity
Clc1ccc(-c2cc(Cl)c(Cl)c(Cl)c2Cl)c(Cl)c1Cl [PCB 170, 2,2′,3,3′,4,4′,5-Heptachlorobiphenyl] | did not induce | 25 µM | significantly decreased | IC50 (estrogen receptor (ER) [6]): 16 µM
Clc1ccc(-c2cc(Cl)c(Cl)c(Cl)c2Cl)cc1Cl [PCB 156, 2,3,3′,4,4′,5-Hexachlorobiphenyl] |  | 40 µM |  | Antiestrogenicity IhEF (inhibitory equivalency factor) (estrogen receptor (ER) [6]): WI (key: NI: no significant induction/inhibition; WI: weak induction/inhibition (< 50% of estradiol maximum induction; < 50% decrease in induction of 3 pM E2)); Antiestrogenicity IC50 (estrogen receptor (ER) [6]; 50% decrease in luciferase activity induced by 3 pM E2, T47D.Luc cells): WI (weak induction/inhibition (< 50% of estradiol maximum induction; < 50% decrease in induction of 3 pM E2))
Clc1ccc(Cl)c(-c2cc(Cl)ccc2Cl)c1 [PCB 52, 2,2′,5,5′-Tetrachlorobiphenyl] | significant ER-mediated activity; also recorded: induced the ER-mediated activity | > 20 µM |  | EC50 (estrogen receptor (ER) [3]): 9.52 µM; Effect of co-treatment on ER activation by E2, in words (estrogen receptor (ER) [6]): potentiated
Clc1cc(Cl)c(-c2c(Cl)c(Cl)cc(Cl)c2Cl)cc1Cl [PCB 187, 2,2′,3,4′,5,5′,6-Heptachlorobiphenyl] |  | 20 µM |  | 
